Values of other authors in patent publication US11850218B2, “Nutraceutical compositions and methods for dietary alleviation of Polycystic Ovary Syndrome” (Provation Life LLC, priority 2022, dated 2023).

Columns and labels:
[1] = tested on: hyperandrogenism
[2] = tested on: PCOS cases
[3] = tested on: cellular sensitivity to insulin

Row | Compound | anti-androgenic effect [1] | cellular sensitivity to insulin / insulin resistance [3] | other results
1 | O[C@H]1[C@H](O)[C@@H](O)[C@H](O)[C@@H](O)[C@H]1O [myo-inositol] | significant anti-androgenic effect | increase cellular sensitivity to insulin | menstruation / menstrual cyclicity [2]: restoration of normal menstruation
2 | CC[C@H](C)C(=O)O[C@H]1C[C@@H](C)C=C2C=C[C@H](C)[C@H](CC[C@@H]3C[C@@H](O)CC(=O)O3)[C@H]21 [Monacolin K] | provides an anti-androgenic effect |  | 
3 | COc1cc(/C=C/C(=O)CC(=O)/C=C/c2ccc(O)c(OC)c2)ccc1O [Curcumin] |  | increases cellular sensitivity to insulin | 
4 | [Zn] [Zinc] | show anti-androgenic effects |  | production of progesterone ([1]; supplementation): increase production
5 | COc1ccc2cc3[n+](cc2c1OC)CCc1cc2c(cc1-3)OCO2 [Berberine] |  | decrease insulin resistance | 
6 | [Mg+2] [Magnesium] | show anti-androgenic effects |  | production of lutenizing hormone ([1]; supplementation): seems to have a positive effect
7 | chromium (III) picolinate | produces an anti-androgenic effect | positive effect upon cellular sensitivity to insulin | free testosterone levels ([1]; PCOS cases): lowering free testosterone levels
